Where two headings read alike, the source gives them in different places.
Assays:
hSERT WT = hSERT WT (Homo sapiens, UniProt P31645)
SERT = SERT (Rattus norvegicus, UniProt P31652); assay: Radioligand binding assay for SERT, displacement of [3H]1; settings: for Ki(NET)/Ki (SERT): selectivity ratio
NET = NET (Rattus norvegicus, UniProt Q9WTR4); assay: Radioligand binding assay for NET, displacement of [3H]nisoxetine
[1] = 30 µM compound, 18°C, COS-7 membranes, hSERT WT
[2] = 30 µM compound, extrapolated from 24°C with the temperature factor of S-1

Chain of SERT (P31652 whole entry): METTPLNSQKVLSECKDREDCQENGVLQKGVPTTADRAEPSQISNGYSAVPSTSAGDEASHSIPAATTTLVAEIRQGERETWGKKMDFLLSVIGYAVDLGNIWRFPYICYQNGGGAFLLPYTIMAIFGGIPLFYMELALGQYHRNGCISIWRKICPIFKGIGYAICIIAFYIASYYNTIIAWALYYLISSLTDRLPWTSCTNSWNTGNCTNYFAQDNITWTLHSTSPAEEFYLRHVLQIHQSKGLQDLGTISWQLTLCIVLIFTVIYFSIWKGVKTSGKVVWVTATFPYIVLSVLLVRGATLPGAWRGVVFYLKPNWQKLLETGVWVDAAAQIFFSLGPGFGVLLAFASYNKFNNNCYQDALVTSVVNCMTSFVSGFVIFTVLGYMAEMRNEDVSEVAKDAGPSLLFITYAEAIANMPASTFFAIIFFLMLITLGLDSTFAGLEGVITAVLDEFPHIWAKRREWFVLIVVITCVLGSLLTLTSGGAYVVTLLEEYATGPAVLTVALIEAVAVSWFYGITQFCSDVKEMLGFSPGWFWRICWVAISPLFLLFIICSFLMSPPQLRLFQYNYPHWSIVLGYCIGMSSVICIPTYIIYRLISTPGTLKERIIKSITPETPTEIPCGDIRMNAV
Chain of hSERT WT (P31645 whole entry): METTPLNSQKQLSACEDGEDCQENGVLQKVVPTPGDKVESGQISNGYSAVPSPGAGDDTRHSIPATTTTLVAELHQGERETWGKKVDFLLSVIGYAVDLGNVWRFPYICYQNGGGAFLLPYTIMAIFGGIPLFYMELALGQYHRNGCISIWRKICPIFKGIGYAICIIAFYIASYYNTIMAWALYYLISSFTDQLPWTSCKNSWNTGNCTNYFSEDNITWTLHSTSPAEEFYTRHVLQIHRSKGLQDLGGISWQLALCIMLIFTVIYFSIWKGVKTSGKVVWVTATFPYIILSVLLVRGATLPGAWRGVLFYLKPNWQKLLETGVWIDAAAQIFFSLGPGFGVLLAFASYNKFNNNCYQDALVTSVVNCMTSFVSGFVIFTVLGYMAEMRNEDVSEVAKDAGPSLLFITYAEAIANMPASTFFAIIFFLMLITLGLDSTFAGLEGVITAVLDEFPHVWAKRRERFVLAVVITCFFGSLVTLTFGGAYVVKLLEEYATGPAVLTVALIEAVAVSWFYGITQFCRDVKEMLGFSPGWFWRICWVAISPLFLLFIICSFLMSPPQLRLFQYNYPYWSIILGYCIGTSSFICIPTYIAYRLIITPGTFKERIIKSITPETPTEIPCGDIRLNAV
Chain of NET (Q9WTR4 1-597): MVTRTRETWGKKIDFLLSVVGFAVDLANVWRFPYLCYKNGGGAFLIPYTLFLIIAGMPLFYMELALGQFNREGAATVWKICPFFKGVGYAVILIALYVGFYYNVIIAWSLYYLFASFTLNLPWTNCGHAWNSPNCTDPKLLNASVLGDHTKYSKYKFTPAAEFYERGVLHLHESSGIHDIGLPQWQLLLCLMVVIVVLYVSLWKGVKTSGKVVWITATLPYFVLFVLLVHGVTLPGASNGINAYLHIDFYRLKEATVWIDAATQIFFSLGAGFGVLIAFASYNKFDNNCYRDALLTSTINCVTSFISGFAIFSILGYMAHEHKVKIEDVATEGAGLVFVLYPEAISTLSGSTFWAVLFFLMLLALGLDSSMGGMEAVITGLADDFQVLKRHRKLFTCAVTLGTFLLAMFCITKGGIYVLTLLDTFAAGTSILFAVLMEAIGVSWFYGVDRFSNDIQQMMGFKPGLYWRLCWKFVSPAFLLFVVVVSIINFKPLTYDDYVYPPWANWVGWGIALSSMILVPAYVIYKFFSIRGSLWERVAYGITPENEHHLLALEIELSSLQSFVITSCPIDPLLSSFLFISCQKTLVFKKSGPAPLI

SMILES | [3H] S-1 dissoc. t½ (min) at 18°C (hSERT WT; [1]) [min] | [3H] S-1 dissoc. t½ (min) at 18°C (hSERT WT) [min] | other results
CN(C)CCCC1(c2ccc(F)cc2)OCc2cc(/C=C/c3ccccc3)ccc21 (single isomer, unassigned; (+)) [(+)62] |  |  | 24°C dissociation t½ calculated to a t½ at 18°C (hSERT WT): 132.3 ± 8.5 min; [3H] S-1 dissoc. t½ (min) at 24°C (hSERT WT; 30 µM compound, 24°C, COS-7 membranes, hSERT WT): 54.9 ± 3.5 min
CN(C)CCCC1(c2ccc(F)cc2)OCc2cc(/C=C/c3ccccc3)ccc21 (single isomer, unassigned; (-)) [(−)62] | 37.3 ± 9.5 |  | 
CN(C)CCCC1(c2ccc(F)cc2)OCc2cc(CN)ccc21 (stereo not drawn) [Compound 5, 3-(5-(Aminomethyl)-1-(4-fluorophenyl)-1,3-dihydroisobenzofuran-1-yl)-N,N-dimethylpropan-1-amine] | 17.4 ± 0.8 |  | 
CN(C)CCCC1(c2ccc(F)cc2)OCc2cc(CN3CCN(c4ccccc4)CC3)ccc21 (stereo not drawn) [Compound 8, 3-(1-(4-Fluorophenyl)-5-((4-phenylpiperazin-1-yl)methyl)-1,3-dihydroisobenzofuran-1-yl)-N,N-dimethylpropan-1-amine] |  | 16.4 ± 0.3 | 
COc1ccccc1N1CCN(Cc2ccc3c(c2)COC3(CCCN(C)C)c2ccc(F)cc2)CC1 (stereo not drawn) [Compound 9, 3-(1-(4-Fluorophenyl)-5-((4-(2-methoxyphenyl)piperazin-1-yl)methyl)-1,3-dihydroisobenzofuran-1-yl)-N,N-dimethylpropan-1-amine] | 16.3 ± 0.1 |  | 
CN(C)CCCC1(c2ccc(F)cc2)OCc2cc(CN3CCN(c4cccc(Cl)c4Cl)CC3)ccc21 (stereo not drawn) [Compound 10, 3-(5-((4-(2,3-Dichlorophenyl)piperazin-1-yl)methyl)-1-(4-fluorophenyl)-1,3-dihydroisobenzofuran-1-yl)-N,N-dimethylpropan-1-amine] | 24.8 ± 1.1 |  | 
CN(C)CCCC1(c2ccc(F)cc2)OCc2cc(CNCc3ccc4ccccc4c3)ccc21 (stereo not drawn) [Compound 13, 3-(1-(4-Fluorophenyl)-5-(((naphthalen-2-ylmethyl)amino)methyl)-1,3-dihydroisobenzofuran-1-yl)-N,N-dimethylpropan-1-amine] |  | 22.1 ± 1.5 | 
CN(C)CCCC1(c2ccc(F)cc2)OCc2cc(CNCc3ccc4c(c3)Cc3ccccc3-4)ccc21 (stereo not drawn) [Compound 14, 3-(5-((((9H-Fluoren-2-yl)methyl)amino)methyl)-1-(4-fluorophenyl)-1,3-dihydroisobenzofuran-1-yl)-N,N-dimethylpropan-1-amine] |  | 11.4 ± 0.2 | 
CN(C)CCCC1(c2ccc(F)cc2)OCc2cc(CNCc3ccc4c(c3)COC4(CCCN(C)C)c3ccc(F)cc3)ccc21 (stereo not drawn) [Compound 15, 3-(5-((((1-(3-(Dimethylamino)propyl)-1-(4-fluorophenyl)-1,3-dihydroisobenzofuran-5-yl)methyl)amino)methyl)-1-(4-fluorophenyl)-1,3-dihydroisobenzofuran-1-yl)-N,N-dimethylpropan-1-amine] | 21.4 ± 0.3 |  | 
CN(C)CCCC1(c2ccc(F)cc2)OCc2cc(Br)ccc21 (stereo not drawn) [Compound 17] |  |  | Ki(NET)/Ki (SERT) (SERT; Table 1): >10,000; Ki (NET): 28400 nM
CN(C)CCCC1(c2ccc(F)cc2)OCc2cc(-c3ccc([N+](=O)[O-])cc3)ccc21 (stereo not drawn) [Compound 19, 3-(1-(4-Fluorophenyl)-5-(4-nitrophenyl)-1,3-dihydroisobenzofuran-1-yl)-N,N-dimethylpropan-1-amine] |  |  | [3H] S-1 dissoc. t½ (min) at 24°C (hSERT WT): 40.2 ± 7.0 min; 24°C dissociation t½ calculated to a t½ at 18°C (hSERT WT; [2]): 97 ± 17 min
CN(C)CCCC1(c2ccc(F)cc2)OCc2cc(/C=C/Cc3ccccc3)ccc21 (stereo not drawn) [Compound 21, (E)-3-(1-(4-Fluorophenyl)-5-(3-phenylprop-1-en-1-yl)-1,3-dihydroisobenzofuran-1-yl)-N,N-dimethylpropan-1-amine] |  | 23.1 ± 2.9 | 
CN(C)CCCC1(c2ccc(F)cc2)OCc2c(I)cccc21 (stereo not drawn) [Compound 22, 3-(1-(4-Fluorophenyl)-4-iodo-1,3-dihydroisobenzofuran-1-yl)-N,N-dimethylpropan-1-amine] |  | 33.2 ± 5.8 | 
CN(C)CCCC(O)(c1ccc(Br)cc1)c1ccc(C#N)cc1CO (stereo not drawn) [Compound 24, 4-(1-(4-Bromophenyl)-4-(dimethylamino)-1-hydroxybutyl)-3-(hydroxymethyl)benzonitrile] | 24.7 ± 5.4 |  | 
CNCCCC1(c2ccc(F)cc2)OCc2cc(C#N)ccc21 (stereo not drawn) [Compound 38, 1-(4-Fluorophenyl)-1-(3-(methylamino)propyl)-1,3-dihydroisobenzofuran-5-carbonitrile] |  |  | Ki (SERT): 5.04 ± 0.176 nM; Ki(NET)/Ki (SERT) (SERT; Table 3): 174.6; Ki (NET): 880 ± 12.4 nM
CN(CCCC1(c2ccc(F)cc2)OCc2cc(C#N)ccc21)CCc1ccccc1 (stereo not drawn) [Compound 42, 1-(4-Fluorophenyl)-1-(3-(methyl(phenethyl)amino)propyl)-1,3-dihydroisobenzofuran-5-carbonitrile] |  |  | [3H] S-1 dissoc. t½ (min) at 24°C (hSERT WT): 45.4 ± 5.9 min; 24°C dissociation t½ calculated to a t½ at 18°C (hSERT WT; [2]): 110 ± 14 min
CN(CCCC1(c2ccc(F)cc2)OCc2cc(C#N)ccc21)Cc1csc2ccccc12 (stereo not drawn) [Compound 45, 1-(3-((Benzo[b]thiophen-3-yl-methyl)(methyl)amino)propyl)-1-(4-fluorophenyl)-1,3-dihydroisobenzofuran-5-carbonitrile] | 59.6 ± 1.0 |  | 
CN(CCCC1(c2ccc(F)cc2)OCc2cc(C#N)ccc21)Cc1ccc(N(C)C)cc1 (stereo not drawn) [Compound 46, 1-(3-((4-(Dimethylamino)benzyl)(methyl)amino)propyl)-1-(4-fluorophenyl)-1,3-dihydroisobenzofuran-5-carbonitrile] |  | 41.2 ± 2.8 | 
CN(CCCC1(c2ccc(F)cc2)OCc2cc(C#N)ccc21)Cc1ccnc2ccccc12 (stereo not drawn) [Compound 48, 1-(4-Fluorophenyl)-1-(3-(methyl(quinolin-4-ylmethyl)amino)propyl)-1,3-dihydroisobenzofuran-5-carbonitrile] | 29.0 ± 1.3 |  | 
CN(CCCC1(c2ccc(F)cc2)OCc2cc(C#N)ccc21)Cc1ccc2ccccc2c1 (stereo not drawn) [Compound 49, 1-(4-Fluorophenyl)-1-(3-(methyl(naphthalen-2-ylmethyl)amino)propyl)-1,3-dihydroisobenzofuran-5-carbonitrile] |  | 60.1 ± 1.0 | 
CN(CCCC1(c2ccc(F)cc2)OCc2cc(C#N)ccc21)Cc1ccc2c(c1)Cc1ccccc1-2 (stereo not drawn) [Compound 50, 1-(3-(((9H-Fluoren-2-yl)methyl)(methyl)amino)propyl)-1-(4-fluorophenyl)-1,3-dihydroisobenzofuran-5-carbonitrile] |  |  | Ki(NET)/Ki (SERT) (SERT; Table 3): >100
CN(CCCC1(c2ccc(F)cc2)OCc2cc(C#N)ccc21)C1CC=C(c2c[nH]c3ccccc23)CC1 (stereo not drawn) [Compound 60, 1-(3-((4-(1H-Indol-3-yl)cyclohex-3-en-1-yl)(methyl)amino)propyl)-1-(4-fluorophenyl)-1,3-dihydroisobenzofuran-5-carbonitrile] |  | 52.0 ± 7.6 | 
CN(C)CCCC1(c2ccc(F)cc2)OCc2cc(-c3cccc(N)c3)ccc21 (stereo not drawn) [Compound 61] | 43.1 ± 6.2 |  | 
CN(C)CCCC1(c2ccc(F)cc2)OCc2cc(I)ccc21 (stereo not drawn) [Compound 63] | 34.4 ± 6.6 |  | 

Reference: publication PMC3894853 (Journal of medicinal chemistry, 2013)
